{"source": "paper PMC7506137", "about": "“Selective Phosphodiesterase 1 Inhibitor BTTQ Reduces Blood Pressure in Spontaneously Hypertensive and Dahl Salt Sensitive Rats: Role of Peripheral Vasodilation” (Frontiers in Physiology, 2020)", "test_system": "Spontaneous Hypertensive rats (SHR)", "assay": "Rat telemetry, blood pressure and heart rate", "assay_type": "in vivo", "conditions": "3 mg/kg enalapril alone, twice daily oral, SHR", "source_text": "Male Sprague Dawley (Taconic Biosciences) rats, Spontaneous Hypertensive rats (Charles River Laboratories, United States), and Dahl Salt Sensitive rats (Medical College of Wisconsin) were implanted with transmitters (HD S10; Data Science International) for collection of BP and heart rate (HR) data. The transmitters are capable of transmitting a BP signal via a pressure catheter inserted into the abdominal aorta. Initially, a baseline was established and recorded. Each rat was then removed from its recording cage and was dosed by p.o. gavage with vehicle or compound and the animals were then returned to the recording cage. Data sampling for BP and HR was carried out in intervals at selected time points for the duration of the experiment.\nAll data in this manuscript were presented as mean ± SEM with a significance level of p < 0.05, and n represents the number of individual animals. The significance of differences in concentration-response curves in the ear temperature and, myograft study were calculated using t-test, compare to the vehicle group. The EC50 was calculated using GraphPad Prism 8.3 using a 4-parameter logistic non-linear curve fit model. Single-dose rat telemetry data for normal and SHR rats and repeat-dose telemetry data in Dahls salt-sensitive rats were analyzed by two-way repeated measures ANOVA. Treatment group main effects were compared by Tukey’s HSD method. All telemetry data were analyzed with GraphPad Prism 8.3.", "data": [{"compound": "CCOC(=O)[C@H](CCc1ccccc1)N[C@@H](C)C(=O)N1CCC[C@H]1C(=O)O", "note": "[enalapril, reference compound]", "values": [{"measurement": "heart rate", "result": "without affecting the heart rate"}, {"measurement": "lowering of MAP", "result": 13, "unit": "%"}]}]}
